Laboratory results taken from patent USRE39682E1, “Farnesyl derivatives and pharmaceutical compositions containing them” (Ramot at Tel Aviv University Ltd., priority 1993, dated 2007).

Experiments:
PPMTase [1] = biological target: T1, PPMTase (Homo sapiens, UniProt O60725); experiment: PPMTase activity (AFC methylation) in membranes of HEC1A cells; type: biochemical; conditions: for PPMTase activity: with inhibitor
T1 construct: PPMTase activity in membranes obtained from four different cell lines as determined by methylation of AFC; endogenous in cells; host or cells: HEC1A cell membranes
T1 sequence (O60725 whole entry): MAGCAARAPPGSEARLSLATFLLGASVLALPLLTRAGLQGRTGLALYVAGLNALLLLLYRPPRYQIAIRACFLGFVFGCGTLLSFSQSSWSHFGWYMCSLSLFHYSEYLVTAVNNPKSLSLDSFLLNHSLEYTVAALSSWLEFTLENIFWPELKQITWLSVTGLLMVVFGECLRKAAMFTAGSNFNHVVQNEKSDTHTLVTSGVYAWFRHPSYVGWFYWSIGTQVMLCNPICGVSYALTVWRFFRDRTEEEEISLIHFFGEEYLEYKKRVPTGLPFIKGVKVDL
Experimental: (§1) Charles River adult male rats were used for preparation of cerebellar synaptosomal membranes. Cerebella were removed after decapitation and homogenized in 0.32M sucrose containing 50 mM Tris-HCl pH 7.4, 3 mM EDTA, 1 mM EGTA, 5 unit/ml aprotinin and 5 μg/ml pepstatin (buffer A) to yield 10% (w/v) homogenates. Nuclear fractions were obtained by 10 min. 600×g centrifugation and synaptosomal fractions were obtained by 20 mins. 14,500×g centrifugation. Membranes of the various cell types used were prepared in the above buffer A by a 60 min. spin at 100,000×g.
(§2) Pellets were resuspended in the homogenization buffer and stored at −70° C. Methylation assays were performed at 37° C. in 50 mM Tris-HCl buffer pH 7.4, using 75-125 μg protein, 25 μM [methyl-^3H]AdoMet ([…]) as a methyl donor and 150 μM AFC as a methylation substrate (prepared as a stock solution in DMSO) in a total volume of 50 μl. DMSO concentration in all assays was 4%.
(§3) Reactions were terminated after 10 min. by adding 500 μl chloroform methanol (1:1) and a subsequent addition of 250 μl H2O, mixing them and subsequently by phase separation. A portion of 125 μl of the chloroform phase was dried down at 40° C. and 200 μl of 1M NaOH/1% SDS solution were added thereto. The [^3H]methanol thus formed was counted by the vapor phase equilibrium method as described previously (Hakiai et al., Cell Mol. Neurobiol., 11, 415-431, (1991); Lenner et al., Cell Mol. Neurbiol., 12, 333 and 3351, (1992); Ben-Baruch et al., Biochem. Biophy. Res. Commun., 195, 282-288, (1993)). Typical background counts (i.e. counts of methylation with no AFC added) were 50-100 cpm while typical methylation counts with AFC as a substrate yielded 500 to 6000 cpm. Assays were performed in triplicate and background counts subtracted. Methylation of endogenous substrates, in intact cells, and [α-^32P] GTP-blot overlay assays and gel electrophoreses were performed as detailed previously (Hakiai et al., supra (1991); Lenner et al., supra (1993)).
(§4) The B16F10 melanoma cells were grown in RPMI 1640/10% fetal calf serum, 2 mM glutamine and antibiotics as for the HEC1A cells, at the density of 1×10^4 cells/well. All four types of cells were used for determining the PPMTase activity using AFC as the substrate as described above for synaptosomal membrane preparation. Usually 150 μg membranal proteins were used in the assay for a 10 min. incubation time.

PPMTase [2] = biological target: T2, PPMTase (Mus musculus, UniProt Q9EQK7); experiment: PPMTase activity (AFC methylation) in membranes of B16F10 melanoma cells; type: biochemical; conditions: for PPMTase activity: with inhibitor
T2 construct: PPMTase activity in membranes obtained from four different cell lines as determined by methylation of AFC; endogenous in cells; host or cells: B16F10 melanoma cell membranes
T2 sequence (Q9EQK7 whole entry): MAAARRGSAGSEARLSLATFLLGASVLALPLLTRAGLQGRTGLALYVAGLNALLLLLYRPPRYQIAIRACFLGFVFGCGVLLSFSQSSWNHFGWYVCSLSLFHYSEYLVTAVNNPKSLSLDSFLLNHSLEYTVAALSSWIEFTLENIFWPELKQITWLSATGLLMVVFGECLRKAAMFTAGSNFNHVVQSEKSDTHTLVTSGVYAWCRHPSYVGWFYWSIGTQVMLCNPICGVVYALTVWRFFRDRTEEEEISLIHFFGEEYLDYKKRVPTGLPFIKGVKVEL
Experimental: as §1, §2, §3, §4

[3] = test system: PPMTase activity in intact HEC1A, ras-transformed rat1 and melanoma cells; experiment: Methylation of endogenous 21-24 KDa GTP-binding proteins in intact cells ([methyl-3H]methionine labelling); type: cell-based; conditions: 100 μM, FIG. 3
Experimental: as §3
HEC1A, rail, ras-transformed rail and B16F10 melanoma cells were also used for metabolic labelling of endogenous proteins with 100-300 μCi/ml [methyl-^3H]methionine which was also indicative of PPMTase activity. […]

Row | SMILES | % Inhibition (PPMTase [1]) | PPMTase activity (PPMTase [1]) | % Inhibition (PPMTase [2]) | PPMTase activity (PPMTase [2]) | inhibition of methylation of endogenous 21-24 KDa proteins [3]
1 | CC(C)=CCC/C(C)=C/CC/C(C)=C/CSCC(=O)O [FTA, S-trans, trans-farnesylthioacetic acid, reference compound] | 43% | 1.7 pmol/min/mg protein | 38% | 1.3 pmol/min/mg protein | able to inhibit
2 | CC(C)=CCC/C(C)=C/CC/C(C)=C/CSc1ccccc1C(=O)O [FTS, (3,7,11-trimethyl-dodeca-2,6,10-trienyl)-2-thiobenzoic acid] | 40% | 1.5 pmol/min/mg protein | 50% | 1.7 pmol/min/mg protein | able to inhibit
